In ChEMBL document CHEMBL4680255, “Antioxidant activity of novel quinazolinones bearing sulfonamide: Potential radiomodulatory effects on liver tissues via NF-κB/ PON1 pathway” (Eur J Med Chem, 2020):
The source made the active and inactive calls. The rule behind the calls is not given here.

What was measured:
[1] = Antioxidant activity assessed as DPPH radical scavenging activity after 30 mins under dark condition by spectrophotometric analysis; assay type: functional
Mus musculus [2] = assay: Radioprotective activity in ip dosed Swiss albino mouse assessed as reduction in gamma-irradiation-induced decline in serum albumin level at 1/10 x LD50 treated at 2 hrs prior to 5 Gy gamma irradiation exposure on 1st day followed by compound treatment for next 2 days and measured at 24 hrs post last dose; assay type: functional, organism-based; settings: time 3.0 day
Mus musculus [3] = assay: (§1) Antioxidant activity in ip dosed Swiss albino mouse assessed as reduction in gamma irradiation-induced hepatic oxidative stress by measuring increase in Zn2+ concentration in liver at 1/10 x LD50 treated at 2 hrs prior to 5 Gy gamma irradiation exposure on 1st day followed by compound treatment for next 2 days and measured at 24 hrs post last dose; assay type: functional; parameters: scale not given: the % may be the effect or the level left; settings: time 3 day
Mus musculus [4] = assay: Hepatoprotective activity in ip dosed Swiss albino mouse assessed as serum ALT level at 1/10 x LD50 treated at 2 hrs prior to 5 Gy gamma irradiation exposure on 1st day followed by compound treatment for next 2 days and measured at 24 hrs post last dose; assay type: functional, organism-based; settings: time 3.0 day
Mus musculus [5] = assay: as §1, with “Radioprotective” for “Antioxidant”, “decrease in PON1 activity” for “hepatic oxidative stress”, “PON1 activity” for “Zn2+ concentration”; assay type: functional; parameters: scale not given: the % may be the effect or the level left; settings: time 3 day
Mus musculus [6] = assay: Radioprotective activity in ip dosed Swiss albino mouse assessed as reduction in gamma irradiation-induced increase in NF-kappaB activity by measuring decrease in NFkappaB activity in liver at 1/10 x LD50 treated at 2 hrs prior to 5 Gy gamma irradiation exposure on 1st day followed by compound treatment for next 2 days and measured at 24 hrs post last dose by ELISA; assay type: functional; settings: time 3 day
Mus musculus [7] = assay: as §1, with “reduction” for “increase”, “ROS level” for “Zn2+ concentration”; assay type: functional; settings: time 3 day
Mus musculus [8] = assay: as §1, with “SOD activity” for “Zn2+ concentration”; assay type: functional; parameters: scale not given: the % may be the effect or the level left; settings: time 3 day
Mus musculus [9] = assay: as §1, with “reduction” for “increase”, “MDA level” for “Zn2+ concentration”; assay type: functional; settings: time 3 day
[10] = Acute toxicity in ip dosed Swiss albino mouse measured after 24 hrs; assay type: organism-based; settings: in vivo
Mus musculus [11] = assay: Hepatoprotective activity in ip dosed Swiss albino mouse assessed as serum AST level at 1/10 x LD50 treated at 2 hrs prior to 5 Gy gamma irradiation exposure on 1st day followed by compound treatment for next 2 days and measured at 24 hrs post last dose; assay type: functional, organism-based; settings: time 3.0 day

`NS(=O)(=O)c1ccc(-n2c(SCC(=O)NCCN3CCOCC3)nc3ccccc3c2=O)cc1` gave an IC50 [1] of 69.8 µM.

`NS(=O)(=O)c1ccc(-n2c(SCC(=O)Nc3c[nH]c(=O)[nH]c3=O)nc3ccccc3c2=O)cc1` showed an IC50 [1] of 54.4 µM.

`NS(=O)(=O)c1ccc(-n2c(SCC(=O)NC3CCN(Cc4ccccc4)CC3)nc3ccccc3c2=O)cc1` showed an IC50 [1] of 104 µM.

In the case of `NS(=O)(=O)c1ccc(-n2c(SCC(=O)Nc3cnccn3)nc3ccccc3c2=O)cc1`, the Activity (Mus musculus [2]) is reported as “Active”, the Activity (Mus musculus [3]) is reported as 39.4% and the Activity (Mus musculus [4]) is reported as “inactive”. For the same compound, the Activity (Mus musculus [5]) was 104.8%, the “inhibition (INH)” value (Mus musculus [6]) was 45.6% and the “inhibition (INH)” value (Mus musculus [7]) was 30.6%. For the same compound, the IC50 [1] was 45.8 µM, the Activity (Mus musculus [8]) was 157% and the “inhibition (INH)” value (Mus musculus [9]) was 49%. The LD50 at 24 h [10] was 200 mg/kg and the Activity (Mus musculus [11]) was “inactive”.

Compound `O=C1O[C@H]([C@@H](O)CO)C(O)=C1O` [ASCORBIC ACID] has an IC50 [1] of 132 µM.

In the case of `NS(=O)(=O)c1ccc(-n2c(SCC(=O)Nc3nc4ccc([N+](=O)[O-])cc4s3)nc3ccccc3c2=O)cc1`, the IC50 [1] is reported as 94.8 µM.

`CCOC(=O)c1ccccc1NC(=O)CSc1nc2ccccc2c(=O)n1-c1ccc(S(N)(=O)=O)cc1` showed an IC50 [1] of 89.5 µM.

Compound `CCOC(=O)N1CCC(NC(=O)CSc2nc3ccccc3c(=O)n2-c2ccc(S(N)(=O)=O)cc2)CC1` has an IC50 [1] of 108 µM.

For `CCOC(=O)c1cccc(NC(=O)CSc2nc3ccccc3c(=O)n2-c2ccc(S(N)(=O)=O)cc2)c1`, the IC50 [1] was 65.7 µM.

In the case of `Cc1cc(NC(=O)CSc2nc3ccccc3c(=O)n2-c2ccc(S(N)(=O)=O)cc2)no1`, the IC50 [1] is reported as 82.4 µM.

`NS(=O)(=O)c1ccc(-n2c(SCC(=O)Nc3nccs3)nc3ccccc3c2=O)cc1` showed an IC50 [1] of 125 µM.

With `CN1C(=O)c2ccc(NC(=O)CSc3nc4ccccc4c(=O)n3-c3ccc(S(N)(=O)=O)cc3)cc2C1=O` the IC50 [1] was 48.5 µM.

With `Cn1c(NC(=O)CSc2nc3ccccc3c(=O)n2-c2ccc(S(N)(=O)=O)cc2)cc(=O)n(C)c1=O` the IC50 [1] was 56.4 µM.

For `NS(=O)(=O)c1ccc(-n2c(SCC(=O)NN3CCOCC3)nc3ccccc3c2=O)cc1`, the IC50 [1] was 66.4 µM.

`NS(=O)(=O)c1ccc(-n2c(SCC(=O)Nc3nnc(C(F)(F)F)s3)nc3ccccc3c2=O)cc1` gave an IC50 [1] of 107 µM.

`CCOc1ccc2nc(NC(=O)CSc3nc4ccccc4c(=O)n3-c3ccc(S(N)(=O)=O)cc3)sc2c1` gave an IC50 [1] of 50.5 µM.
